Converted amounts (≈) assume the structure as drawn. Like-named read-outs stand apart in the source and are kept apart here.
What was measured:
Type in all cases: cell-based
[1] = test system: Bacillus subtilis DSM 10; test: MIC by microbroth dilution; settings: Bacillus subtilis, DSM10, 16 h, 30° C., n.i. = no inhibition up to 67 μg/ml, read-out: MIC
Procedure: (§1) Bacterial strains. Bacterial wildtype strains used in susceptibility assays were either part of HZI's strain collection or purchased from the German Collection of Microorgansims and Cell Cultures (Deutsche Sammlung von Mikroorganismen und Zellkulturen, DSMZ).
(§2) Minimum inhibitory concentration (MIC) was determined by microbroth dilution. In brief, overnight cultures of bacteria (EBS medium) were diluted to OD600 0.01. Disciformycin A (1) or B (2) dissolved in DMSO was added directly to the cultures in 96-well plates (Sarstedt, flat bottom) in duplicate and the compound was tested in serial dilution. […] After 16 h incubation at 900 rpm and 30° C. on a microplate shaker (Titramax, Heidolph) absorbance at 600 nm was measured using a microplate reader (POLARstar Omega, BMG Labtech). MIC values were determined by sigmoidal curve fitting.

[2] = test system: Chromobacterium violaceum DSM 30191; test: MIC by microbroth dilution; settings: 16 h, 30° C., n.i. = no inhibition up to 67 μg/ml
Procedure: as §1, §2

[3] = test system: Escherichia coli DSM 1116; test: MIC by microbroth dilution; settings: 16 h, 30° C., n.i. = no inhibition up to 67 μg/ml
Procedure: as §1, §2

[4] = test system: Micrococcus luteus DSM 20030; test: MIC by microbroth dilution; settings: 16 h, 30° C., n.i. = no inhibition up to 67 μg/ml
Procedure: as §1, §2

[5] = test system: Mycobacterium diemhoferi DSM 43524; test: MIC by microbroth dilution; settings: Mycobacterium, DSM43524, 16 h, 30° C., n.i. = no inhibition up to 67 μg/ml, read-out: MIC
Procedure: as §1, §2

[6] = test system: Mycobacterium sp. DSM 43270; test: MIC by microbroth dilution; settings: 16 h, 30° C., n.i. = no inhibition up to 67 μg/ml
Procedure: as §1, §2

[7] = test system: Nocardioides simplex DSM 20130; test: MIC by microbroth dilution; settings: Pimelobacter simplex, DSM20130, 16 h, 30° C., n.i. = no inhibition up to 67 μg/ml, read-out: MIC
Procedure: as §1, §2

[8] = test system: Paenibacillus polymyxa DSM 36; test: MIC by microbroth dilution; settings: Paenibacillus polymyxa, DSM36, 16 h, 30° C., n.i. = no inhibition up to 67 μg/ml, read-out: MIC
Procedure: as §1, §2

[9] = test system: Pseudomonas aeruginosa DSM 50071; test: MIC by microbroth dilution; settings: 16 h, 30° C., n.i. = no inhibition up to 67 μg/ml
Procedure: as §1, §2

[10] = test system: Staphylococcus aureus (MRSA) DSM-11822; test: MIC by microbroth dilution; settings: microbroth dilution, 16 h, 30° C., n.i. = no inhibition up to 67 μg/ml
Procedure: as §1, §2

[11] = test system: Staphylococcus aureus DSM 346; test: MIC by microbroth dilution; settings: Staphylococcus aureus, DSM346, 16 h, 30° C., n.i. = no inhibition up to 67 μg/ml, read-out: MIC
Procedure: as §1, §2

[12] = test system: Staphylococcus aureus Mu50 (MRSA/VRSA) ATCC 700699; test: MIC by microbroth dilution; settings: 16 h, 30° C., n.i. = no inhibition up to 67 μg/ml
Procedure: as §1, §2

[13] = test system: Staphylococcus aureus N315 (MRSA); test: MIC by microbroth dilution; settings: 16 h, 30° C., n.i. = no inhibition up to 67 μg/ml
Procedure: as §1, §2

[14] = test system: Staphylococcus aureus Newman; test: MIC by microbroth dilution; settings: 16 h, 30° C., n.i. = no inhibition up to 67 μg/ml
Procedure: as §1, §2

[15] = test system: Staphylococcus camosus DSM 20501; test: MIC by microbroth dilution; settings: 30° C., n.i. = no inhibition up to 67 μg/ml
Procedure: as §1, §2

[16] = test system: Chinese hamster ovary CHO-K1 cells (ACC-110); test: Cytotoxicity (MTT) assay, antiproliferative activity; settings: Cricetulus griseus, 120 h, CHO-K1, 5 d incubation
Procedure: (§3) Half maximal inhibitory concentrations (IC50) in μg/ml of disciformycin A (1) and disciformycin B (2) for inhibiting the proliferative activity of human HCT-116 colon carcinoma cells, mouse fibroblast cells L929, and Chinese hamster ovary CHO-K1 cells were determined. Cells were seeded at 6×10^3 cells per well of 96-well plates (Corning CellBind®) in complete medium (180 μl) and directly treated with disciformycin dissolved in DMSO in serial dilution. The compound was tested in duplicate, as well as the internal solvent control. After 5 d incubation, 5 mg/ml MTT in PBS (20 μL) was added per well and it was further incubated for 2 h at 37° C. The medium was then discarded and cells were washed with PBS (100 μl) before adding 2-propanol/10N HCl (250:1, v/v; 100 μl) in order to dissolve formazan granules. The absorbance at 570 nm was measured using a microplate reader (EL808, Bio-Tek Instruments Inc.). The amount of formazan, i.e. relative absorption, is thereby proportional to the number of actively proliferating cells.

[17] = test system: HCT-116 colon carcinoma cells (ACC-581); test: as above; settings: Homo sapiens, 120 h, HCT-116, 5 d incubation
Procedure: as §3

[18] = test system: Mouse fibroblast cells L929 (ACC-2); test: as above; settings: 120 h, L929, 5 d incubation
Procedure: as §3

[19] = test system: S. aureus N315 wildtype (WT); test: Susceptibility (MIC) of S. aureus N315 wildtype; settings: Staphylococcus aureus
[20] = test system: S. aureus N315 mutant Mt50DscA.1; test: Susceptibility (MIC) of Disciformycin A-resistant mutant; settings: Staphylococcus aureus
[21] = test system: S. aureus N315 mutant Mt50DscA.2; test: as above; settings: Staphylococcus aureus
[22] = test system: S. aureus N315 mutant Mt50DscA.3; test: as above; settings: Staphylococcus aureus
[23] = test system: S. aureus N315 mutant Mt50DscA.4; test: as above; settings: Staphylococcus aureus
[24] = test system: S. aureus N315 mutant Mt50DscA.5; test: as above; settings: Staphylococcus aureus
[25] = test system: S. aureus N315 mutant Mt50DscA.6; test: as above; settings: Staphylococcus aureus
[26] = test system: S. aureus N315 mutant Mt50DscA.8; test: as above; settings: Staphylococcus aureus
[27] = test system: S. aureus N315 Mt50DscA.9; test: as above; settings: Staphylococcus aureus
[28] = test system: S. aureus N315 mutant Mt50DscA.10; test: as above; settings: Staphylococcus aureus
[29] = test system: S. aureus N315 mutant Mt50DscA.11; test: as above; settings: Staphylococcus aureus
[30] = test system: S. aureus Newman in PMA-differentiated human THP-1 cell line (macrophages); test: Intra-macrophage activity
Description: The PMA-differentiated human THP-1 cell line (macrophages) was used as cellular host for infection with S. aureus Newman at an MOI (multiplicity of infection) of 10. […] Intracellular bacteria were recovered and serial dilutions were streaked out on CASO-Agar for cfu counting. The reference drug rifampicin reduced the number of intracellular bacteria by ca. 4 logs (at 8×MIC).

[31] = test system: Bacillus subtilis ATCC 6633; test: Agar diffusion assay; settings: ATCC6633, 50 μL of 0.5 mg in 1 mL methanol per 7 mm hole, n.a. = no activity observed, read-out: diameter of inhibition zone
Procedure: (§4) Antimicrobial activities of the gulmirecins were determined in a primary screen against Bacillus subtilis ATCC 6633, Staphylococcus aureus SG511, Staphylococcus auricularis DSM 20609, Mycobacterium vaccae IMET 10670, Pseudomonas aeruginosa K799/61, Escherichia coli SG458, Sporobolomyces salmonicolor SBUG 549, Candida albicans ATCC14053 and Penicillium notatum JP 36. To this end, holes with 7 mm diameter were aseptically punched in the respective agar medium. Subsequently, the agar plates were inoculated with the test organisms. 0.5 mg of every test compound was dissolved in 1 mL of methanol, and 50 μL of this solution was transferred to a single hole. Ciprofloxacin and amphotericin B served as positive controls. After evaporation of the solvent, the agar plates were incubated depending on the growth conditions of the test organisms. […] The test results are shown in Table 6 below, wherein the given values represent the diameters of the respective inhibition zone in the agar diffusion assay.

[32] = test system: Escherichia coli SG458; test: Agar diffusion assay; settings: 50 μL of 0.5 mg in 1 mL methanol per 7 mm hole, n.a. = no activity observed, read-out: diameter of inhibition zone
Procedure: as §4

[33] = test system: Mycobacterium vaccae IMET 10670; test: Agar diffusion assay; settings: Mycolicibacterium vaccae, IMET10670; 50 μL of 0.5 mg in 1 mL methanol per 7 mm hole; n.a. = no activity observed; read-out: diameter of inhibition zone
Procedure: as §4

[34] = test system: Pseudomonas aeruginosa K799/61; test: Agar diffusion assay; settings: 50 μL of 0.5 mg in 1 mL methanol per 7 mm hole, n.a. = no activity observed, read-out: diameter of inhibition zone
Procedure: as §4

[35] = test system: Staphylococcus aureus SG511; test: Agar diffusion assay; settings: 50 μL of 0.5 mg in 1 mL methanol per 7 mm hole, n.a. = no activity observed, read-out: diameter of inhibition zone
Procedure: as §4

[36] = test system: Staphylococcus auricularis DSM 20609; test: Agar diffusion assay; settings: DSM20609, 50 μL of 0.5 mg in 1 mL methanol per 7 mm hole, n.a. = no activity observed, read-out: diameter of inhibition zone
Procedure: as §4

[37] = test system: methicillin-resistant S. aureus (MRSA); test: Bouillon dilution assay (MIC90); settings: Staphylococcus aureus, tryptic soy broth, 37° C., 16 h
Procedure: Before incubation, 3 was added in decreasing concentrations ([…] to 12.5 μg/ml). After incubation, the OD600 was measured. The experiment was run in triplicate. Ciprofloxacin was used as a positive control.

[38] = test system: Candida albicans ATCC14053; test: Agar diffusion assay; settings: 50 μL of 0.5 mg in 1 mL methanol per 7 mm hole; n.a. = no activity observed
Procedure: as §4

[39] = test system: Penicillium notatum JP 36; test: Agar diffusion assay; settings: 50 μL of 0.5 mg in 1 mL methanol per 7 mm hole; n.a. = no activity observed
Procedure: as §4

[40] = test system: Sporobolomyces salmonicolor SBUG 549; test: Agar diffusion assay; settings: 50 μL of 0.5 mg in 1 mL methanol per 7 mm hole; n.a. = no activity observed
Procedure: as §4

[41] = Staphylococcus aureus, read-out: MIC

C/C=C(/C)[C@H]1C/C=C(\C)[C@@H](O[C@H]2O[C@H](CO)[C@@H](O)[C@@H]2O)[C@H](OC(=O)CC(C)C)C(=O)/C=C/[C@H](C)C(=O)O1 [Compound 2, disciformycin B]
MIC [1]: 0.83 µg/mL (≈ 1.58 µM)
MIC [2]: n.i.
MIC [3]: n.i.
MIC [4]: n.i.
MIC [5]: 33.3 µg/mL (≈ 63.5 µM)
MIC [6]: n.i.
MIC [7]: 16.6 µg/mL (≈ 31.6 µM)
MIC [8]: 16.6 µg/mL (≈ 31.6 µM)
MIC [9]: n.i.
MIC [10, 41]: 0.6 µg/mL (≈ 1.14 µM)
MIC [10]: 0.6 µg/mL (≈ 1.14 µM)
MIC [11]: 3.3 µg/mL (≈ 6.29 µM)
MIC [12]: 0.6 µg/mL (≈ 1.14 µM)
MIC [12, 41]: 0.6 µg/mL (≈ 1.14 µM)
MIC [13]: 1.2 µg/mL (≈ 2.29 µM)
MIC ([13]; Staphylococcus aureus, MRSA, read-out: MIC): 1.2 µg/mL (≈ 2.29 µM)
MIC [14]: 1.2 µg/mL (≈ 2.29 µM)
MIC ([14]; Staphylococcus aureus, NEWMAN, read-out: MIC): 1.2 µg/mL (≈ 2.29 µM)
MIC ([15]; 16 h): 2.4 µg/mL (≈ 4.57 µM)
MIC ([15]; Staphylococcus, DSM20501, 16 h, read-out: MIC): 2.4 µg/mL (≈ 4.57 µM)
IC50 [16]: > 10 µg/mL
IC50 [17]: > 10 µg/mL
IC50 [18]: > 10 µg/mL
MIC [19]: 1 µg/mL (≈ 1.91 µM)
MIC [20]: > 64 µg/mL
MIC [21]: > 64 µg/mL
MIC [22]: > 64 µg/mL
MIC [23]: > 64 µg/mL
MIC [24]: 16 µg/mL (≈ 30.5 µM)
MIC [25]: > 64 µg/mL
MIC [26]: > 64 µg/mL
MIC [27]: > 64 µg/mL
MIC [28]: > 64 µg/mL
MIC [29]: 32 µg/mL (≈ 61 µM)
reduction of the number of intracellular bacteria ([30]; 18 h, MOI 10, cfu counting, tested at 1×, 4× and 8×MIC): 3 logs
cytotoxicity towards THP-1 host cells ([30]; 18 h treatment of infected macrophages): without causing any apparent cytotoxicity

O=C(O)c1cn(C2CC2)c2cc(N3CCNCC3)c(F)cc2c1=O [Ciprofloxacin, reference compound]
zone of inhibition at 25 µg/hole [31]: 30 mm
zone of inhibition at 25 µg/hole [32]: 34 mm
zone of inhibition at 25 µg/hole [33]: 24 mm
zone of inhibition at 25 µg/hole [34]: 38 mm
zone of inhibition at 25 µg/hole [35]: 19 mm
zone of inhibition at 25 µg/hole [36]: 20 mm
MIC90 [37]: 75.4 µM (≈ 25 µg/mL)

C[C@@H]1[C@H](O)[C@@H](C)/C=C/C=C/C=C/C=C/C=C/C=C/C=C/[C@H](O[C@@H]2O[C@H](C)[C@@H](O)[C@H](N)[C@@H]2O)C[C@@H]2O[C@](O)(C[C@@H](O)C[C@@H](O)[C@H](O)CC[C@@H](O)C[C@@H](O)CC(=O)O[C@H]1C)C[C@H](O)[C@H]2C(=O)O [Amphotericin B]
diameter of inhibition zone [38]: 22 mm
diameter of inhibition zone [39]: 18 mm
diameter of inhibition zone [40]: 19 mm
